Experiments:
Experiment in all cases: Glasshouse herbicidal test, pre- and post-emergence, percentage damage to the plant
Type in all cases: in vivo
[1] = test system: Setaria faberi (SETFA); settings: 250 g/h, evaluated after 13 days; for SETFA POST percentage damage caused to the plant (five-point scale): post-emergence; for SETFA PRE percentage damage caused to the plant (five-point scale): pre-emergence
Procedure: (§1) Seeds of a variety of test species are sown in standard soil in pots (Lolium perenne (LOLPE), Setaria faberi (SETFA), Alopecurus myosuroides (ALOMY), Echinochloa crus-galli (ECHCG), Avena fatua (AVEFA)). After cultivation for one day (pre-emergence) or after 8 days cultivation (post-emergence) under controlled conditions in a glasshouse (at 24/16° C., day/night; 14 hours light; 65% humidity), the plants are sprayed with an aqueous spray solution derived from the formulation of the technical active ingredient in acetone/water (50:50) solution containing 0.5% Tween 20 (polyoxyethelyene sorbitan monolaurate, CAS RN 9005-64-5). Compounds are applied at 250 g/h. The test plants are then grown in a glasshouse under controlled conditions in a glasshouse (at 24/16° C., day/night; 14 hours light; 65% humidity) and watered twice daily. After 13 days for pre and post-emergence, the test is evaluated for the percentage damage caused to the plant. The biological activities are shown in the following table on a five-point scale (5=80-100%; 4=60-79%; 3=40-59%; 2=20-39%; 1=0-19%).

[2] = test system: Alopecurus myosuroides (ALOMY); settings: 250 g/h, evaluated after 13 days; for ALOMY POST percentage damage caused to the plant (five-point scale): post-emergence; for ALOMY PRE percentage damage caused to the plant (five-point scale): pre-emergence
Procedure: as §1

[3] = test system: Echinochloa crus-galli (ECHCG); settings: 250 g/h, evaluated after 13 days; for ECHCG POST percentage damage caused to the plant (five-point scale): post-emergence; for ECHCG PRE percentage damage caused to the plant (five-point scale): pre-emergence
Procedure: as §1

[4] = test system: Lolium perenne (LOLPE); settings: 250 g/h, evaluated after 13 days; for LOLPE POST percentage damage caused to the plant (five-point scale): post-emergence; for LOLPE PRE percentage damage caused to the plant (five-point scale): pre-emergence
Procedure: as §1

[5] = test system: Avena fatua (AVEFA); settings: 250 g/h, evaluated after 13 days; for AVEFA POST percentage damage caused to the plant (five-point scale): post-emergence; for AVEFA PRE percentage damage caused to the plant (five-point scale): pre-emergence
Procedure: as §1

| Compound | SETFA POST percentage damage caused to the plant (five-point scale) [1] | SETFA PRE percentage damage caused to the plant (five-point scale) [1] | ALOMY POST percentage damage caused to the plant (five-point scale) [2] | ALOMY PRE percentage damage caused to the plant (five-point scale) [2] | ECHCG POST percentage damage caused to the plant (five-point scale) [3] | ECHCG PRE percentage damage caused to the plant (five-point scale) [3] | LOLPE POST percentage damage caused to the plant (five-point scale) [4] | LOLPE PRE percentage damage caused to the plant (five-point scale) [4] | AVEFA POST percentage damage caused to the plant (five-point scale) [5] | AVEFA PRE percentage damage caused to the plant (five-point scale) [5] |
| --- | --- | --- | --- | --- | --- | --- | --- | --- | --- | --- |
| COc1cc(-c2ccc(C#N)cn2)cc(Cl)c1C1C(=O)CC2(CCN(C(C)=O)CC2)CC1=O [Compound A13] | 5 (5=80-100%) | 2 (2=20-39%) | 5 (5=80-100%) | 3 (3=40-59%) | 5 (5=80-100%) | 5 (5=80-100%) | 5 (5=80-100%) | 1 (1=0-19%) | 5 (5=80-100%) | 2 (2=20-39%) |
| CC#Cc1cc(Cl)c(C2C(=O)CC3(CCN(C(C)=O)CC3)CC2=O)c(Cl)c1 [Compound A14] | 5 (5=80-100%) | 5 (5=80-100%) | 5 (5=80-100%) | 5 (5=80-100%) | 5 (5=80-100%) | 5 (5=80-100%) | 5 (5=80-100%) | 5 (5=80-100%) | 5 (5=80-100%) | 5 (5=80-100%) |
| CC#Cc1cc(Cl)c(C2C(=O)CC3(CCN(C(=O)CC#N)CC3)CC2=O)c(Cl)c1 [Compound A15] | 5 (5=80-100%) | 5 (5=80-100%) | 5 (5=80-100%) | 5 (5=80-100%) | 5 (5=80-100%) | 5 (5=80-100%) | 5 (5=80-100%) | 5 (5=80-100%) | 5 (5=80-100%) | 5 (5=80-100%) |
| CC#Cc1cc(Cl)c(C2C(=O)CC3(CCN(C(=O)C(F)F)CC3)CC2=O)c(Cl)c1 [Compound A16] | 5 (5=80-100%) | 5 (5=80-100%) | 5 (5=80-100%) | 5 (5=80-100%) | 5 (5=80-100%) | 5 (5=80-100%) | 5 (5=80-100%) | 5 (5=80-100%) | 5 (5=80-100%) | 5 (5=80-100%) |
| CC#Cc1cc(Cl)c(C2C(=O)CC3(CCN(C(=O)NC(=O)c4ccccn4)CC3)CC2=O)c(Cl)c1 [Compound A17] | 5 (5=80-100%) | 4 (4=60-79%) | 2 (2=20-39%) | 2 (2=20-39%) | 5 (5=80-100%) | 3 (3=40-59%) | 5 (5=80-100%) | 2 (2=20-39%) | 5 (5=80-100%) | 2 (2=20-39%) |
| CC#Cc1cc(Cl)c(C2C(=O)CC3(CCN(C(=O)COC(F)F)CC3)CC2=O)c(Cl)c1 [Compound A18] | 5 (5=80-100%) | 5 (5=80-100%) | 5 (5=80-100%) | 5 (5=80-100%) | 5 (5=80-100%) | 5 (5=80-100%) | 5 (5=80-100%) | 5 (5=80-100%) | 5 (5=80-100%) | 5 (5=80-100%) |
| COc1cc(-c2ccc(C#N)cn2)cc(Cl)c1C1C(=O)CC2(CCN(C(=O)C3CC3)CC2)CC1=O [Compound A35] | 5 (5=80-100%) | 5 (5=80-100%) | 5 (5=80-100%) | 5 (5=80-100%) | 5 (5=80-100%) | 5 (5=80-100%) | 5 (5=80-100%) | 5 (5=80-100%) | 5 (5=80-100%) | 5 (5=80-100%) |
| CC#Cc1cc(C)c(C2C(=O)CC3(CCN(C(C)=O)CC3)CC2=O)c(CC)c1 [Compound A47] | 5 (5=80-100%) | 5 (5=80-100%) | 5 (5=80-100%) | 5 (5=80-100%) | 5 (5=80-100%) | 5 (5=80-100%) | 5 (5=80-100%) | 5 (5=80-100%) | 5 (5=80-100%) | 5 (5=80-100%) |
| CC#Cc1cc(CC)c(C2C(=O)CC3(CCN(C(C)=O)CC3)CC2=O)c(CC)c1 [Compound A48] | 5 (5=80-100%) | 5 (5=80-100%) | 5 (5=80-100%) | 5 (5=80-100%) | 5 (5=80-100%) | 4 (4=60-79%) | 5 (5=80-100%) | 5 (5=80-100%) | 5 (5=80-100%) | 5 (5=80-100%) |
| CC#Cc1cc(Cl)c(C2C(=O)CC3(CCN(C(C)=O)CC3)CC2=O)c(CC)c1 [Compound A49] | 5 (5=80-100%) | 5 (5=80-100%) | 5 (5=80-100%) | 5 (5=80-100%) | 5 (5=80-100%) | 5 (5=80-100%) | 5 (5=80-100%) | 5 (5=80-100%) | 5 (5=80-100%) | 5 (5=80-100%) |
| CCc1cc(-c2ccc(C#N)cn2)cc(C)c1C1C(=O)CC2(CCN(C(=O)C3CC3)CC2)CC1=O [Compound A51, 6-[4-[3-(cyclopropanecarbonyl)-8,10-dioxo-3-azaspiro[5.5]undecan-9-yl]-3-ethyl-5-methyl-phenyl]pyridine-3-carbonitrile] | 5 (5=80-100%) | 5 (5=80-100%) | 5 (5=80-100%) | 5 (5=80-100%) | 5 (5=80-100%) | 4 (4=60-79%) | 5 (5=80-100%) | 5 (5=80-100%) | 5 (5=80-100%) | 5 (5=80-100%) |
| CCc1cc(-c2ccc(C#N)cn2)cc(CC)c1C1C(=O)CC2(CCN(C(=O)C3CC3)CC2)CC1=O [Compound A52] | 5 (5=80-100%) | 5 (5=80-100%) | 5 (5=80-100%) | 5 (5=80-100%) | 5 (5=80-100%) | 5 (5=80-100%) | 5 (5=80-100%) | 5 (5=80-100%) | 5 (5=80-100%) | 5 (5=80-100%) |

— patent US12590067B2, “Herbicidal cyclohexanedione derivatives” (SYNGENTA CROP PROTECTION AG, priority 2019, dated 2026)
